# Experimental data as given in PMC11561238, “Discovery and binding mode of small molecule inhibitors of the apo form of human TDO2” (Scientific Reports, 2024).
# “Also recorded” adds a separate entry of the source.
# Experiments:
# [1] = biological target: T1, IDO1 (Homo sapiens, UniProt P14902); experiment: IDO1 cellular activity assay (IFNγ-stimulated SKOV3 cells); assay type: cell-based; settings: IFNγ 50 ng/ml, 24 h
# T1 construct: SKOV3 cells treated with IFNγ to induce IDO expression; endogenous in cells; host or cells: SKOV3 cells (NCI No. 0503405), IFNγ-stimulated
# Procedure: A cellular assay similar to the TDO2 assay was used to measure IDO1 inhibition in SKOV3 cells.
# SKOV3 cells (source: National Cancer Institute (NCI), No. 0503405) which upregulate IDO1 after stimulation with IFNγ were used to measure compounds for IDO1 inhibitory activity. SKOV3 cells were routinely maintained in RPMI 90% (v/v), FCS 10% (v/v), Penicilin/streptomycin 1% (v/v). SKOV3 cells were seeded in 384 well plates at a density of 8000 cells in 45 µl per well or 4000 cells in 45 µl per well, respectively. Plates were incubated at 37 °C / 5% CO2 for 24 h. On the next day, 10 µl compound in serial dilutions (tested concentration range 10 µM-0.5 nM) and 200 µM L-tryptophan were added as well as IFNγ at a final concentration of 50 ng/ml. After 24 h of incubation at 37 °C / 5% CO2, 3 µl of the supernatant per well was transferred to 25 µl H2O per well in a 384 deep well plate and 25 µl of the supernatant per well was transferred to waste. The SKOV3 cell plates with 25 µl supernatant per well remaining were used to measure viability (see below). […] NFK and kynurenine (KYN) were quantified by LCMS, normalized to the internal standard L-tryptophan-(indole-d5) and the sum was calculated. […] For each compound concentration the percentage of activity compared to 0% and 100% effect was calculated as average ± STDEV (each concentration measured in duplicate). […]
# [2] = biological target: T2, holo-TDO2 (Homo sapiens, UniProt P48775); experiment: Heme competition by holo-TDO2 UV-VIS absorbance (Soret band); assay type: binding; settings: 5 µM holo-TDO2, 20 µM inhibitor, 37 °C, up to 6 h
# T2 construct: a construct encoding amino acids 19–406 of human TDO2 with an N-terminal six histidine tag; His6 (N); PreScission protease cleavage site (linker) (N); made in house; host or cells: E. coli BL21(DE3)
# Procedure: To explore whether the identified apo-binders could compete with heme-binding to TDO2, a UV-visible absorption spectrum of holo-TDO2 was measured in the absence or presence of compounds. […] A shifted Soret peak can indicate a heme protein-ligand interaction, and a reduced intensity indicates loss of protein bound heme (although free heme also absorbs with a peak at approximately 400 nm, it is very poorly soluble).
# Fig. 2 The UV-VIS absorption spectrum of holo-TDO2 in the presence of Cpd-1 (A) or Cpd-2 (B) or the vehicle control. […] The increase of absorbance at 280 nm of holo-TDO2 in the presence of Cpd-1 or Cpd-2 compared to the vehicle control is likely due to compound absorbance at this wavelength.
# A UV − visible spectra study was performed to evaluate the binding of the compounds. The holo-TDO2 absorbance spectra were measured using a BioTek Synergy multimode reader (Agilent) for wavelengths from 250 to 600 nm in 1 nm increments. 5 µM holo-TDO2 was incubated at 37 °C with 20 µM compounds or DMSO in phosphate buffer supplemented with 0.01% Tween-20 in a 96 well UV compatible plate (Corning #3679) and absorbance was measured before (t = 0 h) and after 2–6 h of incubation.
# [3] = biological target: T3, recombinant human TDO2 (holo-TDO2) (Homo sapiens, UniProt P48775); experiment: Holo-TDO2 enzymatic assay; assay type: biochemical
# T3 construct: a construct encoding amino acids 19–406 of human TDO2 with an N-terminal six histidine tag; PreScission protease cleavage site (linker) (N); made in house; host or cells: E. coli BL21(DE3)
# Procedure: The IC50 curve is shown in supplementary Fig. S1 online. We speculate that the observed IC50 shift may be due to the kinetics of heme dissociation from holo-TDO2 and/or the absence of alternative heme binding proteins in the assay system. The structurally similar Cpd-2 was not tested in the enzymatic assay.
# For the enzymatic assay, recombinant human TDO2 comprising amino acids […] with a N-terminal hexahistidine tag, expressed in Escherichia coli and purified to homogeneity, was incubated in assay buffer consisting of 75 mM phosphate buffer at pH 7.0 supplemented with 100 µM ascorbic acid, 50 U/ml catalase, 0.01% bovine serum albumin (BSA), and 0.01% Tween 20 (protocol modified from[45]).
# T2 sequence (P48775 19-406): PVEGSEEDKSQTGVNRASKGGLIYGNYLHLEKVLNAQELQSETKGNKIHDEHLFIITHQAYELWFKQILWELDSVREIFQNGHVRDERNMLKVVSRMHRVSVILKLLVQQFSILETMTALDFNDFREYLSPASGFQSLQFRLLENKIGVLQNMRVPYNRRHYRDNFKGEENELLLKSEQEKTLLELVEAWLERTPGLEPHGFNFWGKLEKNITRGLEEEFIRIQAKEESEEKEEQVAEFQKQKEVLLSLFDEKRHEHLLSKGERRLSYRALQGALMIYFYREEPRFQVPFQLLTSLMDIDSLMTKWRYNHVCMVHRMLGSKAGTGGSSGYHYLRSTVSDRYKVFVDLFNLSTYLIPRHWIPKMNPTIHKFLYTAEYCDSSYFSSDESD
# T3 sequence (P48775 19-406): as above
# T1 sequence (P14902 whole entry): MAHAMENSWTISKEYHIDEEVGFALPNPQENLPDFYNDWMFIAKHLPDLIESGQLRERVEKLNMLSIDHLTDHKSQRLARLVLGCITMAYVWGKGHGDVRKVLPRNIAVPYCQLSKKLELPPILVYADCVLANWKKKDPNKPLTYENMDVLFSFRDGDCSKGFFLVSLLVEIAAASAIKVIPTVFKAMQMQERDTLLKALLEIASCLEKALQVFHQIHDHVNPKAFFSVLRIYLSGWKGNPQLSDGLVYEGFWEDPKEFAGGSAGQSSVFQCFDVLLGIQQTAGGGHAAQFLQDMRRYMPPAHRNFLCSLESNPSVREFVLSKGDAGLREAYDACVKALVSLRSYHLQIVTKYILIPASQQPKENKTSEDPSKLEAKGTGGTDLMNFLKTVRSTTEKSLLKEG
Structure (SMILES),IC50 [1],Soret band (405 nm) intensity of holo-TDO2 absorption spectrum [2],"IC50 ([3]; 30 min assay at room temperature after 30 min pre-incubation with holo-TDO2, read-out: enzymatic assay IC50 (holo form of TDO2))",fold less potent in enzymatic assay than in the cellular assay ([3]; enzymatic IC50 vs TDO2 cellular IC50)
"CCOC(=O)c1c(OC)nc2n(c1=O)CCCC2N(C(=O)Nc1ccccc1C(C)C)[C@@H](C)c1ccccc1 (mixture of isomers) [Cpd-2, ethyl 9-(3-(2-isopropylphenyl)-1-((S)-1-phenylethyl)ureido)-2-methoxy-4-oxo-6,7,8,9-tetrahydro-4H-pyrido[1,2-a]pyrimidine-3-carboxylate]",> 10 µM,clear time-dependent reduction in the Soret band intensity; also recorded: reduction of the absorbance peak at 405 nm,–,–
"CCCc1ccccc1NC(=O)N(C(C)c1ccccc1)C1CCCn2c1nc(OC)c(C(=O)OCC)c2=O (stereo not drawn) [Cpd-1, ethyl 9-(3-(2-propylphenyl)-1-(1-phenylethyl)ureido)-2-methoxy-4-oxo-6,7,8,9-tetrahydro-4H-pyrido[1,2-a]pyrimidine-3-carboxylate]",5.7 µM,clear time-dependent reduction in the Soret band intensity; also recorded: reduction of the absorbance peak at 405 nm,17.4 µM,53 fold
